Results from PMC10572347, “Structure–Activity Relationships and Antiplasmodial Potencies of Novel 3,4-Disubstituted 1,2,5-Oxadiazoles” (International Journal of Molecular Sciences, 2023).
Read-outs that look alike come from different tables or passages of the source.

Legend:
P. falciparum NF54 [1] = assay: In vitro microplate assay against P. falciparum (3H-hypoxanthine incorporation); type: cell-based, Plasmodium falciparum; conditions: for S.I. = IC50 (Cyt.)/IC50 (P.f.NF54): L-6 cells vs P.f. NF54
Method: In vitro activity against the erythrocytic stages of P. falciparum was determined using a ^3H-hypoxanthine incorporation assay, using the drug sensitive NF54 strain [37]. […] The 96-well plates were incubated in a humidified atmosphere at 37 °C, 4% CO2, 3% O2 and 93% N2. After 48 h, 0.05 mL of ^3H-hypoxanthine (=0.5 µCi) was added to each well of the plate. The plates were incubated for a further 24 h under the same conditions. The plates were then harvested with a Betaplate cell harvester (Wallac, Zurich, Switzerland). The red blood cells were transferred onto a glass fiber filter and washed with distilled water. The dried filters were inserted into a plastic foil with 10 mL of scintillation fluid and counted in a Betaplate liquid scintillation counter (Wallac, Zurich, Switzerland). The IC50 values were calculated from sigmoidal inhibition curves by linear regression using Microsoft Excel. Chloroquine (Sigma C6628) was used as control.

L-6 cells [2] = assay: In vitro cytotoxicity with L-6 cells (resazurin); type: cell-based, rat
Method: (§1) Serial drug dilutions of 11 3-fold dilution steps covering a range from 100 to 0.002 μg/mL were prepared. After 70 h of incubation, the plates were inspected under an inverted microscope to assure the growth of the controls and sterile conditions. […] The plates were read with a Spectramax Gemini XS microplate fluorometer (Molecular Devices Cooperation, Sunnyvale, CA, USA) using an excitation wavelength of 536 nm and an emission wavelength of 588 nm. The IC50 values were calculated by linear regression from the sigmoidal dose inhibition curves using SoftmaxPro software Version 8.2.1 (Molecular Devices Cooperation, Sunnyvale, CA, USA). Podophyllotoxin (Sigma P4405) was used as control.

CYP3A4 = CYP3A4 (Homo sapiens, UniProt P08684); assay: Cytochrome P450 3A4 inhibition assay (P450-Glo, Luciferin-IPA); conditions: recombinant human CYP3A4 Supersomes (+ oxidoreductase + b5), pH 7.4, probe Luciferin-IPA
Method: The CYP3A4 inhibition assay was performed using 96-well white plates (Greiner Bio-One) at a pH of 7.4. […] Stock solutions were further diluted to a final concentration of 20 µM using water (HPLC grade). The luciferin IPA stock solution (3 mM) was diluted to a final concentration of 0.3 mM using water (HPLC grade). The CYP3A4 reaction mixture was prepared by mixing water (HPLC grade) with potassium phosphate buffer (1 M), luciferin IPA (0.3 mM) and CYP3A4 membrane (1 pmol/µL). The control reaction mixture was prepared using water (HPLC grade), potassium phosphate buffer (1 M), luciferin IPA (0.3 mM) and membrane without CYP activity (1 pmol/µL). Solutions A and B of the NADPH regeneration system were mixed and HPLC grade water was added. The reconstituted luciferin detection reagent was prepared by mixing the reconstituted buffer with esterase with the luciferin detection reagent. Then, solutions of test compounds and standard were added to the wells of the 96-well white plate; each was tested in triplicate. The CYP3A4 reaction mixture was added to each well and the plate was incubated for 10 min at room temperature. After that, the NADPH regeneration system was added, inducing the reaction followed by an incubation time of 10 min at ambient temperature. By adding the reconstituted luciferin detection reagent, the reaction was terminated and a luminescent signal was formed. Luminescence was measured by a SpectraMax M3 UV plate reader (Molecular Devices). The relative light units (RLU) were received from a calibration curve with beetle luciferin. […] The CYP3A4 inhibition (%) was calculated from the RLU.

P. falciparum NF54 [3] = test system: P. falciparum NF54; parameters: method as in PMID 33925485; conditions: formerly prepared compounds 1–5, cited from earlier work; for IC50: chloroquine-sensitive strain NF54, read-out: P.f. NF54 IC50
L-6 cells [4] = test system: L-6 cells; parameters: method as in PMID 33925485; conditions: formerly prepared compounds 1–5; read-out: Cytotoxicity L-6 Cells IC50; cited from earlier work
[5] = In vitro cytotoxicity with L-6 cells (resazurin); type: cell-based, rat; conditions: rat
Method: as §1

[6] = rat skeletal myofibroblasts, average of four determinations, read-out: Cytotoxicity L-6 Cells IC50
[7] = Plasmodium falciparum, NF54, chloroquine-sensitive strain NF54, average of four determinations, read-out: P.f. NF54 IC50

CYP3A4, sequence (P08684 2-503 limits assumed): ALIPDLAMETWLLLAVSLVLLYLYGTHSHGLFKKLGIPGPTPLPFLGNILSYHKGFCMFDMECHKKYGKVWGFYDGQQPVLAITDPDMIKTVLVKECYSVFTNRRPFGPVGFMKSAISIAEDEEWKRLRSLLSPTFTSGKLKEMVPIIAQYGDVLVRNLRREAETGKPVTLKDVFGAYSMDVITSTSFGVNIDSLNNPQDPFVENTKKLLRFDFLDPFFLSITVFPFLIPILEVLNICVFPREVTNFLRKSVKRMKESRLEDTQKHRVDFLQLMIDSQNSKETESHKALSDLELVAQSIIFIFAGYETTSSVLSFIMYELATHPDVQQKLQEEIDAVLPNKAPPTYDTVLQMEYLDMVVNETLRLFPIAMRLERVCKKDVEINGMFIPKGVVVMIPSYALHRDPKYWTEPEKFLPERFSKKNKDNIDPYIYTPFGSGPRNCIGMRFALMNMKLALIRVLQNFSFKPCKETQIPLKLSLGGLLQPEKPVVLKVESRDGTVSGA

Molecule: CCN(CC)CCCC(C)Nc1ccnc2cc(Cl)ccc12 (centres unmarked) [CQ, chloroquine, reference compound]
- S.I. = IC50 (Cyt.)/IC50 (P.f.NF54) (P. falciparum NF54 [1]): 9672
- IC50 (P. falciparum NF54 [1]; Plasmodium falciparum, NF54, read-out: P.f. NF54 IC50): 0.009 µM
- IC50 (L-6 cells [2]; [6]): 90.9 µM

Molecule: CCOc1ccc(-c2nonc2NC(=O)c2cccc(C)c2)cc1OCC [Compound 1, reference compound]
- inhibition at 10 min, 20 µM (CYP3A4): 45%
- IC50 (P. falciparum NF54 [3]): 11 nM
- S.I. = IC50 (Cyt.)/IC50 (P.f.NF54) (P. falciparum NF54 [3]): 14,483
- IC50 (L-6 cells [4]): 159 µM

Molecule: CCOc1ccc(-c2nonc2NC(=O)c2ccccc2)cc1OCC [Compound 2]
- IC50 (P. falciparum NF54 [3]): 76 nM
- S.I. = IC50 (Cyt.)/IC50 (P.f.NF54) (P. falciparum NF54 [3]): 1463
- IC50 (L-6 cells [4]): 111 µM

Molecule: CCOc1ccc(-c2nonc2NC(=O)c2cccc(F)c2)cc1OCC [Compound 3]
- IC50 (P. falciparum NF54 [3]): 49 nM
- S.I. = IC50 (Cyt.)/IC50 (P.f.NF54) (P. falciparum NF54 [3]): 839.6
- IC50 (L-6 cells [4]): 41.1 µM

Molecule: CCOc1ccc(-c2nonc2NC(=O)c2cccc(C(F)(F)F)c2)cc1OCC [Compound 4]
- IC50 (P. falciparum NF54 [3]): 19 nM
- S.I. = IC50 (Cyt.)/IC50 (P.f.NF54) (P. falciparum NF54 [3]): 524.6
- IC50 (L-6 cells [4]): 9.97 µM

Molecule: CCOc1ccc(-c2nonc2NC(=O)c2ccc(OC)c(Cl)c2)cc1OCC [Compound 5]
- IC50 (P. falciparum NF54 [3]): 14 nM
- S.I. = IC50 (Cyt.)/IC50 (P.f.NF54) (P. falciparum NF54 [3]): 1431
- IC50 (L-6 cells [4]): 20 µM

Molecule: CCOc1ccc(-c2nonc2NC(=O)c2cccc(C)c2)cc1OC [Compound 52, N-[4-(4-Ethoxy-3-methoxyphenyl)-1,2,5-oxadiazol-3-yl]-3-methylbenzamide]
- S.I. = IC50 (Cyt.)/IC50 (P.f.NF54) (P. falciparum NF54 [1]): 86.47
- IC50 (P. falciparum NF54 [1]; [7]): 0.275 µM
- melting point: 260 °C
- IC50 at 72 h [5]: 23.8 µM
- inhibition at 10 min, 20 µM (CYP3A4): 52%

Molecule: Cc1cccc(C(=O)Nc2nonc2-c2cccc(N)c2)c1 [Compound 61, N-[4-(3-Aminophenyl)-1,2,5-oxadiazol-3-yl]-3-methylbenzamide]
- S.I. = IC50 (Cyt.)/IC50 (P.f.NF54) (P. falciparum NF54 [1]): 6.182
- IC50 (P. falciparum NF54 [1]; [7]): 30.2 µM
- melting point: 172 °C
- IC50 at 72 h [5]: 186 µM
- inhibition at 10 min, 20 µM (CYP3A4): 99%

Molecule: COc1cc([C@@H]2c3cc4c(cc3[C@H](O)[C@H]3COC(=O)[C@H]23)OCO4)cc(OC)c1OC [POD, podophyllotoxin, reference compound]
- IC50 (L-6 cells [2]; [6]): 0.012 µM

Molecule: N-[4-(4-Fluorophenyl)-3-(trifluoromethyl)-1,2,5-oxadiazol-3-yl]benzamide [Compound 50]
- IC50 (P. falciparum NF54 [1]; chloroquine-sensitive strain NF54, average of four determinations, read-out: P.f. NF54 IC50): 8.68 µM
- IC50 (L-6 cells [2]): 7.4 µM
